According to PMC4653046 (Bioorganic & medicinal chemistry letters, 2015):
≈ marks a conversion by molar mass, not a printed value.

How the values were obtained:
[1] = metabolic stability in mouse liver microsomes; assay type: in vitro ADME; conditions: for metabolic stability: mouse liver microsomes, 37 °C, pH 7.4, NADPH-generating system; for half-life: mouse, liver microsomes, pH 7.4
[2] = tested on: NRAS mutant human HT-1080 fibrosarcoma; conditions: nude mice; cited from earlier work
water solubility = assay type: physicochemical
[3] = tested on: BJ-derived cell lines (BJeLR, DRD, BJeHLT, BJeH); assay: potency and genotype-selective lethality in BJ-derived isogenic cell lines; assay type: cell-based, human; conditions: for potency in HRAS^G12V-overexpressing cell lines: BJeLR, DRD cells
[4] = tested on: HT-1080 human fibrosarcoma cell line; assay: growth inhibition of HT-1080 cells; assay type: cell-based; conditions: for growth inhibition: HT-1080 cells, 48 h treatment
[5] = stability in mouse plasma; assay type: in vitro ADME; conditions: 500 ng/mL, 37 °C, up until 120 min

metabolic stability [1] | Structure (SMILES) | potency in HRAS^G12V-overexpressing cell lines [3] | half-life [1] | further results
medium to poor metabolic stability | C=CCN1CCN(CC(=O)c2ccc(OC(C)C)c(-n3c(CN4CCN(C(=O)COc5ccc(Cl)cc5)CC4)nc4ccccc4c3=O)c2)CC1 [APKE, N-allylpiperazine ketone erastin] |  |  | 
medium to poor metabolic stability | COc1ccc(CN2CCN(CC(=O)c3ccc(OC(C)C)c(-n4c(CN5CCN(C(=O)COc6ccc(Cl)cc6)CC5)nc5ccccc5c4=O)c3)CC2)cc1 [PMB-PKE, N-p-methoxybenzylpiperazine ketone erastin] |  |  | 
medium to poor metabolic stability | CC(C)Oc1ccc(C(=O)CN2CCN(C)CC2)cc1-n1c(CN2CCN(C(=O)COc3ccc(Cl)cc3)CC2)nc2ccccc2c1=O [MPKE, N-methylpiperazine ketone erastin] |  |  | 

More lines, now with the values behind:

Structure (SMILES) | metabolic stability [1] | potency in HRAS^G12V-overexpressing cell lines [3] | half-life [1] | further results
CC(C)Oc1ccc(CN2CCNCC2)cc1-n1c(CN2CCN(C(=O)COc3ccc(Cl)cc3)CC2)nc2ccccc2c1=O [PE, piperazine erastin] |  |  |  | effect on the growth of already established tumors [2]: limited effect
CCOc1ccccc1-n1c(C(C)N2CCN(C(=O)COc3ccc(Cl)cc3)CC2)nc2ccccc2c1=O (centres unmarked) [Erastin, erastin] |  |  |  | solubility (water solubility): 86 µM (≈ 47 µg/mL)
CC(C)Oc1ccc(C(=O)CN2CCNCC2)cc1-n1c(CN2CCN(C(=O)COc3ccc(Cl)cc3)CC2)nc2ccccc2c1=O [PKE, piperazine ketone erastin] |  | low nanomolar potencies | > 90 min | growth inhibition [4]: complete growth inhibition; stability in mouse plasma [5]: remained stable
CC(C)Oc1ccc(C(=O)Cn2ccnc2)cc1-n1c(CN2CCN(C(=O)COc3ccc(Cl)cc3)CC2)nc2ccccc2c1=O [IKE, imidazole ketone erastin] |  | low nanomolar potencies |  | selective lethality to BJeLR and DRD cells compared to BJeH and BJeHLT cells ([3]; 4 isogenic BJ-derived cell lines): selective lethality; growth inhibition [4]: complete growth inhibition; GI50 ([4]; Homo sapiens, HT-1080, 48 h): 310 nM; stability in mouse plasma [5]: remained stable
CC(=O)c1ccc(OC(C)C)c(-n2c(CN3CCN(C(=O)COc4ccc(Cl)cc4)CC3)nc3ccccc3c2=O)c1 [KE] |  | low nanomolar potencies | < 5 min | 
CC(C)Oc1ccc(C(=O)CF)cc1-n1c(CN2CCN(C(=O)COc3ccc(Cl)cc3)CC2)nc2ccccc2c1=O [FKE, α-fluoro ketone erastin] | medium to poor metabolic stability | low nanomolar potencies |  | 
CC(C)Oc1ccc(C=O)cc1-n1c(CN2CCN(C(=O)COc3ccc(Cl)cc3)CC2)nc2ccccc2c1=O [AE, aldehyde erastin, reference compound] |  | low nanomolar potencies | < 5 min | 
